In US6737383B1, “Herbicidal oxadiazolidines” (priority 1999, dated 2004):

How the values were obtained:
winter barley = test: Test E winter barley; format: in vivo, Hordeum vulgare; settings: Preemergence; for Barley (winter) plant response rating (0 to 100 scale): Rate 250 g/ha
wheat = test: Test B pre/postemergence wheat; format: in vivo, Triticum aestivum
Procedure, shortened: (§1)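 Herbicidal effect was estimated by eye on a ten-point control scale after plants spent twelve to sixteen days in a greenhouse following soil or foliar treatment. Foliar sprays targeted plants at one to four leaves; all doses were formulated in a non-phytotoxic solvent with surfactant.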

winter wheat [1] = test: Test E winter wheat; format: in vivo, Triticum aestivum; settings: Preemergence; for Wheat (winter) plant response rating (0 to 100 scale): Rate 250 g/ha
Italian ryegrass = test: Test E Italian ryegrass; format: in vivo, Lolium multiflorum; settings: Preemergence; for I. Ryegrass plant response rating (0 to 100 scale): Rate 250 g/ha
duck salad = test: Test B flood test duck salad; format: in vivo, Heteranthera limosa
Procedure, shortened: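 Each value is a visual injury score relative to controls, with 10 meaning complete control and 0 no effect. Evaluation took place twelve to sixteen days after the 2-leaf-stage plants were treated and kept in the greenhouse.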

green foxtail = test: Test E green foxtail; format: in vivo, Setaria viridis; settings: Preemergence; for Green foxtail plant response rating (0 to 100 scale): Rate 250 g/ha
wild oat = test: Test E wild oat; format: in vivo, Avena fatua; settings: Preemergence; for Wild oat plant response rating (0 to 100 scale): Rate 250 g/ha
winter wheat [2] = test: Test E winter wheat; format: in vivo, Triticum aestivum; settings: Postemergence; for Wheat (winter) plant response rating: Rate 250 g/ha
Procedure, shortened: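 For postemergence, sowings are timed so plants reach the 1- to 4-leaf stage at spraying. Test compound is applied in a surfactant-containing solvent mixture that is non-phytotoxic. Response is judged by eye against untreated controls after approximately 21 to 28 days.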

soybean = test: Test B pre/postemergence soybean; format: in vivo, Glycine max
Procedure, shortened: as §1

purple nutsedge = test: Test B pre/postemergence purple nutsedge; format: in vivo, Cyperus rotundus
Procedure, shortened: as §1

blackgrass = test: Test E blackgrass; format: in vivo, Alopecurus myosuroides; settings: Preemergence; for Blackgrass plant response rating (0 to 100 scale): Rate 250 g/ha
[3] = Rate 500 g/ha, 0 to 100 scale where 0 is no effect and 100 is complete control
[4] = Rate 1000 g/ha, 0 to 100 scale, 0 no effect, 100 complete control
[5] = Preemergence, Rate 62 g/ha, scale of 0 to 10 where 0 is no effect and 10 is complete control
[6] = Preemergence, Rate 250 g/ha, scale of 0 to 10 where 0 is no effect and 10 is complete control
[7] = Preemergence, Rate 500 g/ha, scale of 0 to 10 where 0 is no effect and 10 is complete control
[8] = Rate 125 g/ha, Postemergence, scale of 0 to 10 where 0 is no effect and 10 is complete control
[9] = Rate 125 g/ha, Preemergence, scale of 0 to 10 where 0 is no effect and 10 is complete control
[10] = Rate 250 g/ha, Postemergence, scale of 0 to 10 where 0 is no effect and 10 is complete control
[11] = Rate 500 g/ha, Postemergence, scale 0 to 10, 0 no effect, 10 complete control
[12] = Rate 62 g/ha, headed Pre-emergence (flood test species), scale 0 to 10 (0 no effect, 10 complete control)
[13] = Rate 125 g/ha, Pre-emergence, flood test species, scale 0 to 10 where 0 is no effect and 10 is complete control
[14] = Rate 250 g/ha, Pre-emergence, flood-test species, scale 0 to 10, 0 is no effect, 10 is complete control
[15] = Rate 500 g/ha, Pre-emergence, flood test species, scale 0 to 10 (0 no effect, 10 complete control)
[16] = 0 to 100 scale where 0 is no effect and 100 is complete control
[17] = Rate 500 g/ha, 0 to 100 scale, 0 is no effect, 100 is complete control
[18] = Rate 125 g/ha, 0 to 100 scale (0 no effect, 100 complete control)

**Q.** Which results are given for CCN(C(=O)n1oc(=O)n(N(C)C)c1=O)C1CCCCC1 [Compound 274]?
**A.** Barley (winter) plant response rating (0 to 100 scale) (winter barley): 50; Plant response rating, Barley (winter) (winter barley; [3]): 60; Plant response rating, Barley (winter) (winter barley; [4]): 55; Wheat plant response rating (wheat; [5]): 0; Wheat plant response rating (wheat; [6]): 0; Plant response rating, Wheat (wheat; [7]): 0; Wheat plant response rating (wheat; [8]): 0; Wheat plant response rating (wheat; [9]): 0; Plant response rating, Wheat (wheat; [10]): 0; Wheat plant response rating (wheat; [11]): 0; Wheat (winter) plant response rating (0 to 100 scale) (winter wheat [1]): 30; Plant response rating, Wheat (winter) (winter wheat [1]; [3]): 50; Plant response rating, Wheat (winter) (winter wheat [1]; [4]): 50; I. Ryegrass plant response rating (0 to 100 scale) (Italian ryegrass): 20; Plant response rating, I. Ryegrass (Italian ryegrass; [3]): 30; Plant response rating, I. Ryegrass (Italian ryegrass; [4]): 50; Ducksalad plant response rating (duck salad; Pre-emergence, Rate 1000 g/ha, scale 0 to 10 (0 no effect, 10 complete control)): 0; Ducksalad plant response rating (duck salad; [12]): 0; Ducksalad plant response rating (duck salad; [13]): 0; Ducksalad plant response rating (duck salad; [14]): 0; Ducksalad plant response rating (duck salad; [15]): 0; Ducksalad plant response rating (duck salad; Rate 2000 g/ha, Pre-emergence (as headed), scale 0 to 10): 0; Green foxtail plant response rating (0 to 100 scale) (green foxtail): 20; Plant response rating, Green foxtail (green foxtail; [3]): 30; Plant response rating, Green foxtail (green foxtail; [4]): 40; Wild oat plant response rating (0 to 100 scale) (wild oat): 40; Plant response rating, Wild oat (wild oat; [3]): 50; Plant response rating, Wild oat (wild oat; [4]): 60; Plant response rating, Wheat (winter) (winter wheat [2]; Rate 1000 g/ha, 0 to 100 scale where 0 is no effect and 100 is complete control): 60; Wheat (winter) plant response rating (winter wheat [2]; [16]): 30; Plant response rating, Wheat (winter) (winter wheat [2]; [17]): 50; Soybean plant response rating (soybean; [5]): 0; Soybean plant response rating (soybean; [6]): 0; Plant response rating, Soybean (soybean; [7]): 0; Soybean plant response rating (soybean; [8]): 3; Soybean plant response rating (soybean; [9]): 0; Plant response rating, Soybean (soybean; [10]): 5; Soybean plant response rating (soybean; [11]): 5; Nutsedge plant response rating (purple nutsedge; [5]): 0; Nutsedge plant response rating (purple nutsedge; [6]): 0; Plant response rating, Nutsedge (purple nutsedge; [7]): 0; Nutsedge plant response rating (purple nutsedge; [8]): 0; Nutsedge plant response rating (purple nutsedge; [9]): 0; Plant response rating, Nutsedge (purple nutsedge; [10]): 0; Nutsedge plant response rating (purple nutsedge; [11]): 0; Blackgrass plant response rating (0 to 100 scale) (blackgrass): 0; Plant response rating, Blackgrass (blackgrass; [3]): 30; Plant response rating, Blackgrass (blackgrass; [4]): 65

**Q.** With CC(C)N(C(=O)n1oc(=O)n(CC(C)(C)C)c1=O)c1ccccc1 [Compound 276] as the molecule, how does the “Plant response rating, Barley (winter)” value (winter barley; [18]) read?
**A.** 50

**Q.** And the “Barley (winter) plant response rating (0 to 100 scale)” value (winter barley)?
**A.** 30

**Q.** What about the “Plant response rating, Barley (winter)” value (winter barley; [3]) of the same molecule?
**A.** 50

**Q.** And the “Wheat plant response rating” value (wheat; [5])?
**A.** 0

**Q.** And the “Wheat plant response rating” value (wheat; [6])?
**A.** 0

**Q.** What about the “Plant response rating, Wheat” value (wheat; [7]) of the same molecule?
**A.** 3

**Q.** What about the “Wheat plant response rating” value (wheat; [8]) of the same molecule?
**A.** 0

**Q.** What about the “Wheat plant response rating” value (wheat; [9]) of the same molecule?
**A.** 0

**Q.** And the “Plant response rating, Wheat” value (wheat; [10])?
**A.** 0

**Q.** What about the “Wheat plant response rating” value (wheat; [11]) of the same molecule?
**A.** 0

**Q.** What about the “Plant response rating, Wheat (winter)” value (winter wheat [1]; [18]) of the same molecule?
**A.** 20

**Q.** And the “Wheat (winter) plant response rating (0 to 100 scale)” value (winter wheat [1])?
**A.** 30

**Q.** And the “Plant response rating, Wheat (winter)” value (winter wheat [1]; [3])?
**A.** 50

**Q.** And the “Plant response rating, I. Ryegrass” value (Italian ryegrass; [18])?
**A.** 30

**Q.** What about the “I. Ryegrass plant response rating (0 to 100 scale)” value (Italian ryegrass) of the same molecule?
**A.** 60

**Q.** And the “Plant response rating, I. Ryegrass” value (Italian ryegrass; [3])?
**A.** 50

**Q.** And the “Ducksalad plant response rating” value (duck salad; [12])?
**A.** 0

**Q.** What about the “Ducksalad plant response rating” value (duck salad; [13]) of the same molecule?
**A.** 0

**Q.** What about the “Ducksalad plant response rating” value (duck salad; [14]) of the same molecule?
**A.** 0

**Q.** And the “Ducksalad plant response rating” value (duck salad; [15])?
**A.** 0

**Q.** What about the “Plant response rating, Green foxtail” value (green foxtail; [18]) of the same molecule?
**A.** 60

**Q.** And the “Green foxtail plant response rating (0 to 100 scale)” value (green foxtail)?
**A.** 100

**Q.** And the “Plant response rating, Green foxtail” value (green foxtail; [3])?
**A.** 98

**Q.** What about the “Plant response rating, Wild oat” value (wild oat; [18]) of the same molecule?
**A.** 50

**Q.** What about the “Wild oat plant response rating (0 to 100 scale)” value (wild oat) of the same molecule?
**A.** 60

**Q.** What about the “Plant response rating, Wild oat” value (wild oat; [3]) of the same molecule?
**A.** 60

**Q.** And the “Plant response rating, Wheat (winter)” value (winter wheat [2]; Rate 125 g/ha, 0 to 100 scale, 0 is no effect, 100 is complete control)?
**A.** 10

**Q.** What about the “Wheat (winter) plant response rating” value (winter wheat [2]; [16]) of the same molecule?
**A.** 10

**Q.** What about the “Plant response rating, Wheat (winter)” value (winter wheat [2]; [17]) of the same molecule?
**A.** 20

**Q.** What about the “Soybean plant response rating” value (soybean; [5]) of the same molecule?
**A.** 0

**Q.** What about the “Soybean plant response rating” value (soybean; [6]) of the same molecule?
**A.** 0

**Q.** What about the “Plant response rating, Soybean” value (soybean; [7]) of the same molecule?
**A.** 0

**Q.** What about the “Soybean plant response rating” value (soybean; [8]) of the same molecule?
**A.** 5

**Q.** And the “Soybean plant response rating” value (soybean; [9])?
**A.** 0

**Q.** And the “Plant response rating, Soybean” value (soybean; [10])?
**A.** 6

**Q.** What about the “Soybean plant response rating” value (soybean; [11]) of the same molecule?
**A.** 7

**Q.** And the “Nutsedge plant response rating” value (purple nutsedge; [5])?
**A.** 0

**Q.** And the “Nutsedge plant response rating” value (purple nutsedge; [8])?
**A.** 0

**Q.** What about the “Nutsedge plant response rating” value (purple nutsedge; [9]) of the same molecule?
**A.** 0

**Q.** What about the “Plant response rating, Nutsedge” value (purple nutsedge; [10]) of the same molecule?
**A.** 0

**Q.** What about the “Nutsedge plant response rating” value (purple nutsedge; [11]) of the same molecule?
**A.** 0

**Q.** And the “Plant response rating, Blackgrass” value (blackgrass; [18])?
**A.** 30

**Q.** What about the “Blackgrass plant response rating (0 to 100 scale)” value (blackgrass) of the same molecule?
**A.** 50

**Q.** What about the “Plant response rating, Blackgrass” value (blackgrass; [3]) of the same molecule?
**A.** 50
